Test results published in patent publication US9718828B2 (MERCK SHARP & DOHME CORP., priority 2011, dated 2017).

The compounds below were run against hBTK (full-length BTK, 6HIS-tag cleaved) (Homo sapiens (Human), UniProt Q06187) (assay: BTK enzymatic activity, LANCE TR-FRET assay (Assay Method C)). Conditions: LANCE TR-FRET, 50 pM hBTK, 25 μM ATP; class 100-1000 is given as ≧100 nM-<1 μM; read-out: IC50 Btk activity values - Assay Method C.
Format: biochemical

Chain of hBTK (full-length BTK, 6HIS-tag cleaved) (Q06187 whole entry): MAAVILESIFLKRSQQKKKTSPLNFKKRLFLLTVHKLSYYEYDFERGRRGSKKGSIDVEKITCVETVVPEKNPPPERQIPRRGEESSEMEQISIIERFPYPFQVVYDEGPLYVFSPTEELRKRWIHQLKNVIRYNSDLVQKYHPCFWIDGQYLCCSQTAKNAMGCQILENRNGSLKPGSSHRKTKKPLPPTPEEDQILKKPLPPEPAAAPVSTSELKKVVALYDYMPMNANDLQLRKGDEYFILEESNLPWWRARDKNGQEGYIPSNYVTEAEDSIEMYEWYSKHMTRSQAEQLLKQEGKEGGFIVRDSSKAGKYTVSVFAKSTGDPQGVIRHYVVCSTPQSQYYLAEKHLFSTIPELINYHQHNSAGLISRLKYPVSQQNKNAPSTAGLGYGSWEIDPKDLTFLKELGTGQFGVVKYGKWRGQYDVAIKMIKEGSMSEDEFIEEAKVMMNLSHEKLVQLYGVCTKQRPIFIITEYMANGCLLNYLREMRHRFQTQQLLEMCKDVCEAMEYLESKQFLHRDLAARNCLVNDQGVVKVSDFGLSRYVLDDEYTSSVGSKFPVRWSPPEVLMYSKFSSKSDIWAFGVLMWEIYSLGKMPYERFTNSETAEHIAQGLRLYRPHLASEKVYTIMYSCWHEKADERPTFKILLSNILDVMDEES

Row | Structure (SMILES) | IC50
1 | CC1(C(=O)N2CCC[C@@H](c3nc(-c4ccc(C(=O)Nc5ccc(C#N)cn5)cc4)c4c(N)nccn34)C2)COC1 [Example 327, 4-(8-amino-3-{(3R)-1-[(3-methyloxetan-3-yl)carbonyl]piperidin-3-yl}imidazo[1,5-a]pyrazin-1-yl)-N-(5-cyanopyridin-2-yl)benzamide] | < 0.01 µM
2 | Nc1nccn2c([C@@H]3CCCN(C(=O)c4cnsn4)C3)nc(-c3ccc(C(=O)Nc4cc(C(F)(F)F)ccn4)cc3)c12 [Example 330, 4-{8-amino-3-[(3R)-1-(1,2,5-thiadiazol-3-ylcarbonyl)piperidin-3-yl]imidazo[1,5-a]pyrazin-1-yl}-N-[4-(trifluoromethyl)pyridin-2-yl]benzamide] | < 0.01 µM

Now from value to compound:

Row | IC50 | Structure (SMILES)
3 | 0.01 to 0.1 µM | COc1ccc(NC(=O)c2ccc(-c3nc([C@@H]4CCCN(C(=O)C5(C)COC5)C4)n4ccnc(N)c34)cc2)nc1 [Example 325, (R)-4-(8-amino-3-(1-(3-methyloxetane-3-carbonyl)piperidin-3-yl)imidazo[1,5-a]pyrazin-1-yl)-N-(5-methoxypyridin-2-yl)benzamide]
4 | < 0.01 µM | Cc1noc(C)c1C(=O)N1CCC[C@@H](c2nc(-c3ccc(C(=O)Nc4cc(C(F)(F)F)ccn4)cc3)c3c(N)nccn23)C1 [Example 328]
5 | < 0.01 µM | CC(C)N1CC(C(=O)N2CCC[C@@H](c3nc(-c4ccc(C(=O)Nc5cc(C(F)(F)F)ccn5)cc4)c4c(N)nccn34)C2)C1 [Example 329, 4-{8-amino-3-[(3R)-1-{[1-(1-methylethyl)azetidin-3-yl]carbonyl}piperidin-3-yl]imidazo[1,5-a]pyrazin-1-yl}-N-[4-(trifluoromethyl)pyridin-2-yl]benzamide]
6 | < 0.01 µM | Nc1nccn2c([C@@H]3CCCN(C(=O)CCC(F)(F)F)C3)nc(-c3ccc(C(=O)Nc4cc(C(F)(F)F)ccn4)cc3)c12 [Example 331, 4-{8-amino-3-[(3R)-1-(4,4,4-trifluorobutanoyl)piperidin-3-yl]imidazo[1,5-a]pyrazin-1-yl}-N-[4-(trifluoromethyl)pyridin-2-yl]benzamide]
7 | < 0.01 µM | Nc1nccn2c([C@@H]3CCCN(C(=O)CC(F)(F)F)C3)nc(-c3ccc(C(=O)Nc4cc(C(F)(F)F)ccn4)cc3)c12 [Example 332, 4-{8-amino-3-[(3R)-1-(3,3,3-trifluoropropanoyl)piperidin-3-yl]imidazo[1,5-a]pyrazin-1-yl}-N-[4-(trifluoromethyl)pyridin-2-yl]benzamide]

Each compound was assayed against Btk enzyme (His-Btk) (Homo sapiens (Human), UniProt Q06187) (assay: Btk enzyme activity, IMAP fluorescence polarization assay (Assay Method A)). Conditions: not given.
Chain of Btk enzyme (His-Btk) (Q06187 whole entry): as above

Row | Structure (SMILES) | EC50
8 | COC(=O)c1cnc(N)c2c(-c3ccc(C(=O)Nc4cc(C(F)(F)F)ccn4)cc3)nc(C)n12 [Example 312, methyl 8-amino-3-methyl-1-(4-(4-(trifluoromethyl)pyridin-2-ylcarbamoyl)phenyl)imidazo[1,5-a]pyrazine-5-carboxylate] | 0.01 to 0.1 µM
9 | CC1(C(=O)N2CCC[C@@H](c3nc(-c4ccc(C(=O)Nc5cc(C(F)(F)F)ccn5)cc4)c4c(N)ncc(-c5ccccc5)n34)C2)COC1 [Example 321, (R)-4-(8-amino-3-(1-(3-methyloxetane-3-carbonyl)piperidin-3-yl)-5-phenylimidazo[1,5-a]pyrazin-1-yl)-N-(4-(trifluoromethyl)pyridin-2-yl)benzamide] | 0.01 to 0.1 µM

More lines, now with the values ahead:

Row | EC50 | Structure (SMILES)
10 | < 0.01 µM | [2H]C([2H])([2H])c1cnc(N)c2c(-c3ccc(C(=O)Nc4cc(C(F)(F)F)ccn4)cc3)nc([C@@H]3CCCN(C(=O)C4(C)COC4)C3)n12 [Example 317, (R)-4-(8-amino-5-deuteromethyl-3-(1-(3-methyloxetane-3-carbonyl)piperidin-3-yl)imidazo[1,5-a]pyrazin-1-yl)-N-(4-(trifluoromethyl)pyridin-2-yl)benzamide]
11 | 0.01 to 0.1 µM | COc1cccc(-c2cnc(N)c3c(-c4ccc(C(=O)Nc5cc(C(F)(F)F)ccn5)cc4)nc([C@@H]4CCCN(C(=O)C5(C)COC5)C4)n23)c1 [Example 320, (R)-4-(8-amino-5-(3-methoxyphenyl)-3-(1-(3-methyloxetane-3-carbonyl)piperidin-3-yl)imidazo[1,5-a]pyrazin-1-yl)-N-(4-(trifluoromethyl)pyridin-2-yl)benzamide]
12 | 0.01 to 0.1 µM | CC1(C(=O)N2CCC[C@@H](c3nc(-c4ccc(C(=O)Nc5cc(C(F)(F)F)ccn5)cc4)c4c(N)ncc(C5=CCOCC5)n34)C2)COC1 [Example 322, (R)-4-(8-amino-5-(3,6-dihydro-2H-pyran-4-yl)-3-(1-(3-methyloxetane-3-carbonyl)piperidin-3-yl)imidazo[1,5-a]pyrazin-1-yl)-N-(4-(trifluoromethyl)pyridin-2-yl)benzamide]
13 | 0.01 to 0.1 µM | Cc1nc(-c2ccc(C(=O)Nc3cc(C(F)(F)F)ccn3)cc2)c2c(N)ncc(C(O)CC(C)C)n12 (centres unmarked) [Example 323, 4-(8-amino-5-(1-hydroxy-3-methylbutyl)-3-methylimidazo[1,5-a]pyrazin-1-yl)-N-(4-(trifluoromethyl)pyridin-2-yl)benzamide]

Same assay, conditions: read-out: EC50 Btk activity values - Assay Method A; IMAP-FP, 60 min pre-incubation, 5 μM ATP; class 100-1000 is given as ≧100 nM-<1 μM

Row | Structure (SMILES) | EC50
14 | CC1(C(=O)N2CCC[C@@H](c3nc(-c4ccc(C(=O)Nc5cc(C(F)(F)F)ccn5)cc4)c4c(N)ncc(-c5ccco5)n34)C2)COC1 [Example 311, (R)-4-(8-amino-5-(furan-2-yl)-3-(1-(3-methyloxetane-3-carbonyl)piperidin-3-yl)imidazo[1,5-a]pyrazin-1-yl)-N-(4-(trifluoromethyl)pyridin-2-yl)benzamide] | < 0.01 µM
15 | Nc1ncc(/C=C/c2ccccc2)n2c(C3CCOCC3)nc(-c3ccc(C(=O)Nc4ccccn4)cc3)c12 [Example 313, (E)-4-(8-amino-5-styryl-3-(tetrahydro-2H-pyran-4-yl)imidazo[1,5-a]pyrazin-1-yl)-N-(pyridin-2-yl)benzamide] | < 0.01 µM
16 | COCCC(=O)N1CCOC(c2nc(-c3ccc(C(=O)Nc4cc(C(F)(F)F)ccn4)cc3)c3c(N)ncc(Cl)n23)C1 (centres unmarked) [Example 314, 4-(8-amino-5-chloro-3-(4-(3-methoxypropanoyl)morpholin-2-yl)imidazo[1,5-a]pyrazin-1-yl)-N-(4-(trifluoromethyl)pyridin-2-yl)benzamide] | < 0.01 µM
17 | CC1(C(=O)N2CCOC(c3nc(-c4ccc(C(=O)Nc5cc(C(F)(F)F)ccn5)cc4)c4c(N)ncc(Cl)n34)C2)COC1 (centres unmarked) [Example 315, 4-(8-amino-5-chloro-3-(4-(3-methyloxetane-3-carbonyl)morpholin-2-yl)imidazo[1,5-a]pyrazin-1-yl)-N-(4-(trifluoromethyl)pyridin-2-yl)benzamide] | < 0.01 µM
18 | Nc1ncc(Cl)n2c(C3CN(C(=O)C4(O)CCC4)CCO3)nc(-c3ccc(C(=O)Nc4cc(C(F)(F)F)ccn4)cc3)c12 (centres unmarked) [Example 316, 4-(8-amino-5-chloro-3-(4-(1-hydroxycyclobutanecarbonyl)morpholin-2-yl)imidazo[1,5-a]pyrazin-1-yl)-N-(4-(trifluoromethyl)pyridin-2-yl)benzamide] | < 0.01 µM
19 | CC1(C(=O)N2CCC[C@@H](c3nc(-c4ccc(C(=O)Nc5cc(C(F)(F)F)ccn5)cc4)c4c(N)ncc(/C=C/c5ccc(F)cc5)n34)C2)COC1 [Example 318, (R,E)-4-(8-amino-5-(4-fluorostyryl)-3-(1-(3-methyloxetane-3-carbonyl)piperidin-3-yl)imidazo[1,5-a]pyrazin-1-yl)-N-(4-(trifluoromethyl)pyridin-2-yl)benzamide] | < 0.01 µM
20 | CC1(C(=O)N2CCC[C@@H](c3nc(-c4ccc(C(=O)Nc5cc(C(F)(F)F)ccn5)cc4)c4c(N)ncc(CCc5ccccc5)n34)C2)COC1 [Example 319, (R)-4-(8-amino-3-(1-(3-methyloxetane-3-carbonyl)piperidin-3-yl)-5-phenethylimidazo[1,5-a]pyrazin-1-yl)-N-(4-(trifluoromethyl)pyridin-2-yl)benzamide] | < 0.01 µM
